{"source": "patent US12060588B2", "about": "“Methods of editing DNA methylation” (Whitehead Institute for Biomedical Research, priority 2016, dated 2024)", "key": {"[1]": {"system": "BDNF promoter IV", "experiment": "Bisulfite sequencing of BDNF promoter IV in mouse cortical neurons", "type": "cell-based", "settings": "with 4 BDNF gRNAs, in contrast to gRNA negative controls", "procedure": "FIGS. 3A-3E depict targeted demethylation of BDNF promoter IV by dCas9-Tet1 to activate BDNF in neurons. FIG. 3A provides a schematic representation of targeting BDNF promoter IV by dCas9-Tet1 (dC-T) with specific gRNAs to erase methylation and activate BDNF expression. […] Bars are mean t SD of three biological replicates. FIG. 3C provides representative confocal images for BDNF induction in FIG. 3B. Top panel: BDNF expression was induced by 50 mM KCl treatment for 6 hrs. […] Stained in red for MAP2 (top two panels) or Cherry (bottom two panels), green for BDNF, blue for DAPI and grey for dCas9. Scale bar: 50 um. FIG. 3D depicts bisulfite sequencing of neurons in FIG. 3C. […] Shown is the mean percentage±SD of two biological replicates.\nDNA replication-independent active demethylation has been proposed to operate in post-mitotic neurons (Guo et al., 2011; Martinowich et al., 2003). To test whether active demethylation can be induced in post-mitotic neurons, we applied the dCas9-Tet1 system to study the regulation of the BDNF gene. BDNF expression can be induced by neuronal activity accompanied by demethylation of its promoter IV (Chen et al., 2003; Martinowich et al., 2003). We designed 4 gRNAs targeting 11 CpGs in BDNF promoter IV (FIG. 11A) to determine whether dCas9-Tet1 can activate BDNF by inducing demethylation of this promoter (FIG. 3A). […]"}, "[2]": {"system": "Npas4", "experiment": "Npas4 expression in mouse cortical neurons (RT-qPCR)", "type": "cell-based", "settings": "with the 4 BDNF promoter IV gRNAs", "procedure": "FIGS. 11A-11L depict targeted demethylation of BDNF promoter IV by dCas9-Tet1 in neurons. […] PAM for each gRNA is highlighted by a red box. […] Note that cultured neurons were treated with AraC on DIV2 to halt cell division in glial cells and neural progenitors. […] FIG. 11C provides EDU labeling analysis for the mouse primary neurons over the course of KCl treatment for 24 hrs. Note that extremely few EDU positive cells were observed. Stained in red for EDU, green for MAP2 and DAPI for nuclei. Scale bar: 500 um. FIG. 11D Upper panel: provides quantification of neuronal density over the course of KCl treatment. The post-mitotic neuron density remains steadily around 4.5×10^4/cm2 over time. Bars represent mean±SD of three experimental replicates. Lower panel: provides quantification of the EDU positive cells over the course of KCl treatment. Less than 2% of the cells are EDU-positive over 24 hrs. Bars represent mean±SD of three experimental replicates. FIG. 11E provides confocal micrographs of BDNF induction by ectopic expression of dCas9-Tet1 and a set of 4 gRNAs targeting BDNF promoter IV. Stained in green for BDNF, magenta for MAP2, red for Cherry and blue for DAPI. […]\nCells were harvested using Trizol followed by Direct-zol (Zymo Research), according to manufacturer's instructions. […] Quantitative PCR reactions were prepared with SYBR Green (Invitrogen), and performed in 7900HT Fast ABI instrument. […]"}}, "data": [{"substance": "dCas9-Tet1: catalytically inactive Cas9 (dCas9) fused through NLS to the Tet1 catalytic domain, SEQ ID NO: 159; lentivirally expressed with gRNAs", "values": [{"measurement": "methylation of BDNF promoter IV", "setting": "[1]", "result": "significantly reduced methylation"}, {"measurement": "induction of Npas4 expression", "setting": "[2]", "result": "did not induce Npas4 expression"}]}]}
